{
  "source": "paper PMC8699473",
  "about": "“An Easily Expandable Multi-Drug LC-MS Assay for the Simultaneous Quantification of 57 Oral Antitumor Drugs in Human Plasma” (Cancers, 2021)",
  "key": {"[1]": {"assay": "Freeze-thaw stability in spiked pooled human plasma", "assay_type": "physicochemical"}, "[2]": {"assay": "Autosampler stability of ready for injection samples", "assay_type": "physicochemical, human"}},
  "data": [
    {"smiles": "CCOc1cc2ncc(C#N)c(Nc3ccc(OCc4ccccn4)c(Cl)c3)c2cc1NC(=O)/C=C/CN(C)C", "note": "[Neratinib]", "values": [
      {"measurement": "Freeze-Thaw Accuracy [%]", "setting": "[1]; validation standard 2xLLOV", "value": 82.2, "unit": "%"},
      {"measurement": "Freeze-Thaw Accuracy [%]", "setting": "[1]; validation standard LLOV", "value": 64.7, "unit": "%"},
      {"measurement": "Freeze-Thaw Accuracy [%]", "setting": "[1]; validation standard MOV", "value": 88.9, "unit": "%"},
      {"measurement": "Freeze-Thaw Accuracy [%]", "setting": "[1]; validation standard ULOV", "value": 87.2, "unit": "%"},
      {"measurement": "Autosampler (24h, 4°C) Accuracy [%]", "setting": "[2]; validation standard 2xLLOV", "value": 95.7, "unit": "%"},
      {"measurement": "Autosampler (72h, 4°C) Accuracy [%]", "setting": "[2]; validation standard 2xLLOV", "value": 100.1, "unit": "%"},
      {"measurement": "Autosampler (24h, 4°C) Accuracy [%]", "setting": "[2]; validation standard LLOV", "value": 75.2, "unit": "%"},
      {"measurement": "Autosampler (72h, 4°C) Accuracy [%]", "setting": "[2]; validation standard LLOV", "value": 73.8, "unit": "%"},
      {"measurement": "Autosampler (24h, 4°C) Accuracy [%]", "setting": "[2]; validation standard MOV", "value": 103.1, "unit": "%"},
      {"measurement": "Autosampler (72h, 4°C) Accuracy [%]", "setting": "[2]; validation standard MOV", "value": 100.5, "unit": "%"},
      {"measurement": "Autosampler (24h, 4°C) Accuracy [%]", "setting": "[2]; validation standard ULOV", "value": 93.3, "unit": "%"},
      {"measurement": "Autosampler (72h, 4°C) Accuracy [%]", "setting": "[2]; validation standard ULOV", "value": 96.0, "unit": "%"}
    ]},
    {"smiles": "Cc1cn(-c2cc(NC(=O)c3ccc(C)c(Nc4nccc(-c5cccnc5)n4)c3)cc(C(F)(F)F)c2)cn1", "note": "[Nilotinib]", "values": [
      {"measurement": "Freeze-Thaw Accuracy [%]", "setting": "[1]; validation standard 2xLLOV", "value": 98.5, "unit": "%"},
      {"measurement": "Freeze-Thaw Accuracy [%]", "setting": "[1]; validation standard LLOV", "value": 92.8, "unit": "%"},
      {"measurement": "Freeze-Thaw Accuracy [%]", "setting": "[1]; validation standard MOV", "value": 100.9, "unit": "%"},
      {"measurement": "Freeze-Thaw Accuracy [%]", "setting": "[1]; validation standard ULOV", "value": 96.0, "unit": "%"},
      {"measurement": "Autosampler (24h, 4°C) Accuracy [%]", "setting": "[2]; validation standard 2xLLOV", "value": 97.8, "unit": "%"},
      {"measurement": "Autosampler (72h, 4°C) Accuracy [%]", "setting": "[2]; validation standard 2xLLOV", "value": 101.2, "unit": "%"},
      {"measurement": "Autosampler (24h, 4°C) Accuracy [%]", "setting": "[2]; validation standard LLOV", "value": 88.1, "unit": "%"},
      {"measurement": "Autosampler (72h, 4°C) Accuracy [%]", "setting": "[2]; validation standard LLOV", "value": 92.6, "unit": "%"},
      {"measurement": "Autosampler (24h, 4°C) Accuracy [%]", "setting": "[2]; validation standard MOV", "value": 102.7, "unit": "%"},
      {"measurement": "Autosampler (72h, 4°C) Accuracy [%]", "setting": "[2]; validation standard MOV", "value": 104.0, "unit": "%"},
      {"measurement": "Autosampler (24h, 4°C) Accuracy [%]", "setting": "[2]; validation standard ULOV", "value": 100.3, "unit": "%"},
      {"measurement": "Autosampler (72h, 4°C) Accuracy [%]", "setting": "[2]; validation standard ULOV", "value": 102.0, "unit": "%"}
    ]},
    {"smiles": "COC(=O)c1ccc2c(c1)NC(=O)/C2=C(\\Nc1ccc(N(C)C(=O)CN2CCN(C)CC2)cc1)c1ccccc1", "note": "[Nintedanib]", "values": [
      {"measurement": "Freeze-Thaw Accuracy [%]", "setting": "[1]; validation standard 2xLLOV", "value": 103.0, "unit": "%"},
      {"measurement": "Freeze-Thaw Accuracy [%]", "setting": "[1]; validation standard LLOV", "value": 93.2, "unit": "%"},
      {"measurement": "Freeze-Thaw Accuracy [%]", "setting": "[1]; validation standard MOV", "value": 96.9, "unit": "%"},
      {"measurement": "Freeze-Thaw Accuracy [%]", "setting": "[1]; validation standard ULOV", "value": 95.8, "unit": "%"},
      {"measurement": "Autosampler (24h, 4°C) Accuracy [%]", "setting": "[2]; validation standard 2xLLOV", "value": 104.2, "unit": "%"},
      {"measurement": "Autosampler (72h, 4°C) Accuracy [%]", "setting": "[2]; validation standard 2xLLOV", "value": 104.4, "unit": "%"},
      {"measurement": "Autosampler (24h, 4°C) Accuracy [%]", "setting": "[2]; validation standard LLOV", "value": 91.3, "unit": "%"},
      {"measurement": "Autosampler (72h, 4°C) Accuracy [%]", "setting": "[2]; validation standard LLOV", "value": 99.8, "unit": "%"},
      {"measurement": "Autosampler (24h, 4°C) Accuracy [%]", "setting": "[2]; validation standard MOV", "value": 102.7, "unit": "%"},
      {"measurement": "Autosampler (72h, 4°C) Accuracy [%]", "setting": "[2]; validation standard MOV", "value": 104.6, "unit": "%"},
      {"measurement": "Autosampler (24h, 4°C) Accuracy [%]", "setting": "[2]; validation standard ULOV", "value": 102.7, "unit": "%"},
      {"measurement": "Autosampler (72h, 4°C) Accuracy [%]", "setting": "[2]; validation standard ULOV", "value": 101.4, "unit": "%"}
    ]},
    {"smiles": "NC(=O)c1cccc2cn(-c3ccc([C@@H]4CCCNC4)cc3)nc12", "note": "[Niraparib]", "values": [
      {"measurement": "Freeze-Thaw Accuracy [%]", "setting": "[1]; validation standard 2xLLOV", "value": 96.8, "unit": "%"},
      {"measurement": "Freeze-Thaw Accuracy [%]", "setting": "[1]; validation standard LLOV", "value": 98.0, "unit": "%"},
      {"measurement": "Freeze-Thaw Accuracy [%]", "setting": "[1]; validation standard MOV", "value": 96.5, "unit": "%"},
      {"measurement": "Freeze-Thaw Accuracy [%]", "setting": "[1]; validation standard ULOV", "value": 97.1, "unit": "%"},
      {"measurement": "Autosampler (24h, 4°C) Accuracy [%]", "setting": "[2]; validation standard 2xLLOV", "value": 103.0, "unit": "%"},
      {"measurement": "Autosampler (72h, 4°C) Accuracy [%]", "setting": "[2]; validation standard 2xLLOV", "value": 99.6, "unit": "%"},
      {"measurement": "Autosampler (24h, 4°C) Accuracy [%]", "setting": "[2]; validation standard LLOV", "value": 96.8, "unit": "%"},
      {"measurement": "Autosampler (72h, 4°C) Accuracy [%]", "setting": "[2]; validation standard LLOV", "value": 96.3, "unit": "%"},
      {"measurement": "Autosampler (24h, 4°C) Accuracy [%]", "setting": "[2]; validation standard MOV", "value": 104.6, "unit": "%"},
      {"measurement": "Autosampler (72h, 4°C) Accuracy [%]", "setting": "[2]; validation standard MOV", "value": 100.5, "unit": "%"},
      {"measurement": "Autosampler (24h, 4°C) Accuracy [%]", "setting": "[2]; validation standard ULOV", "value": 100.8, "unit": "%"},
      {"measurement": "Autosampler (72h, 4°C) Accuracy [%]", "setting": "[2]; validation standard ULOV", "value": 100.1, "unit": "%"}
    ]},
    {"smiles": "O=C(c1cc(Cc2n[nH]c(=O)c3ccccc23)ccc1F)N1CCN(C(=O)C2CC2)CC1", "note": "[Olaparib]", "values": [
      {"measurement": "Freeze-Thaw Accuracy [%]", "setting": "[1]; validation standard 2xLLOV", "value": 99.5, "unit": "%"},
      {"measurement": "Freeze-Thaw Accuracy [%]", "setting": "[1]; validation standard LLOV", "value": 113.4, "unit": "%"},
      {"measurement": "Freeze-Thaw Accuracy [%]", "setting": "[1]; validation standard MOV", "value": 96.6, "unit": "%"},
      {"measurement": "Freeze-Thaw Accuracy [%]", "setting": "[1]; validation standard ULOV", "value": 100.5, "unit": "%"},
      {"measurement": "Autosampler (24h, 4°C) Accuracy [%]", "setting": "[2]; validation standard 2xLLOV", "value": 103.8, "unit": "%"},
      {"measurement": "Autosampler (72h, 4°C) Accuracy [%]", "setting": "[2]; validation standard 2xLLOV", "value": 100.5, "unit": "%"},
      {"measurement": "Autosampler (24h, 4°C) Accuracy [%]", "setting": "[2]; validation standard LLOV", "value": 111.6, "unit": "%"},
      {"measurement": "Autosampler (72h, 4°C) Accuracy [%]", "setting": "[2]; validation standard LLOV", "value": 111.2, "unit": "%"},
      {"measurement": "Autosampler (24h, 4°C) Accuracy [%]", "setting": "[2]; validation standard MOV", "value": 100.5, "unit": "%"},
      {"measurement": "Autosampler (72h, 4°C) Accuracy [%]", "setting": "[2]; validation standard MOV", "value": 98.0, "unit": "%"},
      {"measurement": "Autosampler (24h, 4°C) Accuracy [%]", "setting": "[2]; validation standard ULOV", "value": 103.8, "unit": "%"},
      {"measurement": "Autosampler (72h, 4°C) Accuracy [%]", "setting": "[2]; validation standard ULOV", "value": 100.5, "unit": "%"}
    ]},
    {"smiles": "C=CC(=O)Nc1cc(Nc2nccc(-c3cn(C)c4ccccc34)n2)c(OC)cc1N(C)CCN(C)C", "note": "[Osimertinib]", "values": [
      {"measurement": "Freeze-Thaw Accuracy [%]", "setting": "[1]; validation standard 2xLLOV", "value": 93.7, "unit": "%"},
      {"measurement": "Freeze-Thaw Accuracy [%]", "setting": "[1]; validation standard LLOV", "value": 95.6, "unit": "%"},
      {"measurement": "Freeze-Thaw Accuracy [%]", "setting": "[1]; validation standard MOV", "value": 96.2, "unit": "%"},
      {"measurement": "Freeze-Thaw Accuracy [%]", "setting": "[1]; validation standard ULOV", "value": 92.7, "unit": "%"},
      {"measurement": "Autosampler (24h, 4°C) Accuracy [%]", "setting": "[2]; validation standard 2xLLOV", "value": 104.2, "unit": "%"},
      {"measurement": "Autosampler (72h, 4°C) Accuracy [%]", "setting": "[2]; validation standard 2xLLOV", "value": 99.1, "unit": "%"},
      {"measurement": "Autosampler (24h, 4°C) Accuracy [%]", "setting": "[2]; validation standard LLOV", "value": 90.3, "unit": "%"},
      {"measurement": "Autosampler (72h, 4°C) Accuracy [%]", "setting": "[2]; validation standard LLOV", "value": 91.2, "unit": "%"},
      {"measurement": "Autosampler (24h, 4°C) Accuracy [%]", "setting": "[2]; validation standard MOV", "value": 103.8, "unit": "%"},
      {"measurement": "Autosampler (72h, 4°C) Accuracy [%]", "setting": "[2]; validation standard MOV", "value": 100.3, "unit": "%"},
      {"measurement": "Autosampler (24h, 4°C) Accuracy [%]", "setting": "[2]; validation standard ULOV", "value": 98.4, "unit": "%"},
      {"measurement": "Autosampler (72h, 4°C) Accuracy [%]", "setting": "[2]; validation standard ULOV", "value": 99.1, "unit": "%"}
    ]}
  ]
}
